These results are taken from ChEMBL document CHEMBL1131296 (J Med Chem, 1998).

The target of this assay is T1, Alpha-1A adrenergic receptor (Rattus norvegicus, UniProt P43140).
T1 sequence (P43140 whole entry): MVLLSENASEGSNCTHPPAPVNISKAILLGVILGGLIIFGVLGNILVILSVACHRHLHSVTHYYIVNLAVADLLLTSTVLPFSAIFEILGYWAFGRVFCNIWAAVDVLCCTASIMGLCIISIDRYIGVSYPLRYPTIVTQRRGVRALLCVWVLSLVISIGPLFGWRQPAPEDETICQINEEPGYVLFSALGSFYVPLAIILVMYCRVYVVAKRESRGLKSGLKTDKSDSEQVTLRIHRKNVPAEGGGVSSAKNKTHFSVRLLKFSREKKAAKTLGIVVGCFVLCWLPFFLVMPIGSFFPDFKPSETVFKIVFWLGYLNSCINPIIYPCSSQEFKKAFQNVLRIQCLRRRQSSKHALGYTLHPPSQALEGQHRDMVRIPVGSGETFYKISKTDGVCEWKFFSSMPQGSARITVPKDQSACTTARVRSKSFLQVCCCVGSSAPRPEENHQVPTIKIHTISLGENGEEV
Nature of the assay: Antagonism of the norepinephrine induced contraction of rat isolated prostatic vas deferens. The assay is classed as functional. The settings on record: read-out: pA2 (converted).

As to `COc1cc2nc(N(C)CCCCCCN(C)C(=O)c3cccc(CN(C)C)c3)nc(N)c2cc1OC`, the Kb was 55 nM.
